Source: PubChem BioAssay (NCI)
Values joined by “and” are separate entries in the source; they are usually repeats but may differ in a detail not shown here. Identical values can stand only once.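 Interpolation was linear, between the two tested concentrations surrounding the appropriate level; five concentrations were tested over 48 hours in 96-well plates. Abbreviation: GI50, concentration required for 50% inhibition of growth. TGI: total growth inhibition.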

What was measured:
Assay in all cases: inhibition of tumour cell growth, NCI panel, 48 h
DLD-1 colon = test system: DLD-1 colon
DMS 114 small cell lung = test system: DMS 114 small cell lung
LXFL 529 NSCLC = test system: LXFL 529 NSCLC
M19-MEL melanoma = test system: M19-MEL melanoma
SNB-78 CNS = test system: SNB-78 CNS
XF 498 CNS = test system: XF 498 CNS
BT-549 breast = test system: BT-549 breast
MDA-MB-231 breast = test system: MDA-MB-231 breast
NCI/ADR-RES ovarian = test system: NCI/ADR-RES ovarian
PC-3 prostate = test system: PC-3 prostate

Row | Structure (SMILES) | TGI (DLD-1 colon) [µM] | TGI (DMS 114 small cell lung) [µM] | TGI (LXFL 529 NSCLC) [µM] | TGI (M19-MEL melanoma) [µM] | TGI (SNB-78 CNS) [µM] | TGI (XF 498 CNS) [µM] | further results
1 | COc1ccc(/C(=N\NC(=S)NN)C(c2ccc(OC)cc2)C2C(=O)Oc3ccccc32)cc1 (stereo not drawn) | > 100 | > 100 | > 100 | > 100 | > 100 | > 100 | GI50 (DLD-1 colon): > 100 µM; GI50 (M19-MEL melanoma): > 100 µM; GI50 (SNB-78 CNS): > 100 µM; GI50 (XF 498 CNS): > 100 µM
2 | CCOC(=O)c1cc2c3c(c(O)c(OC)c2s1)N(C(=O)c1cc2c4c(c(O)c(OC)c2s1)N(C(C)=O)CC4)CC3 | > 100 | > 100 | > 100 | > 100 | > 100 | 67.8 | –
3 | O=C(N/N=C/c1cccc(F)c1)c1ccncc1 | > 100 | > 100 | > 100 | – | – | > 100 | –
4 | CCOC(=O)C(NC(=O)c1nc[nH]c1[N+](=O)[O-])C(C)C (stereo not drawn) | > 100 | > 100 | > 100 | > 100 | – | 93.2 | –
5 | Cc1c(C(=O)O)oc2ccc([N+](=O)[O-])cc12 | > 100 | > 100 | > 100 | > 100 | > 100 | > 100 | –
6 | CSC(=S)N/N=C/c1nccc2ccccc12 | 22.4 | – | 24.6 | > 33.6 | 63.6 | 16.4 | –
7 | COc1cc2c(cc1OC)C(C(=O)c1cccc(OC)c1OC)C(=O)N(C)CC2 (stereo not drawn) | > 100 | > 100 | > 100 | > 100 | – | > 100 | –
8 | Cc1c2ccccc2cc2ccc3oc([N+](=O)[O-])cc3c12 | > 100 | > 100 | > 100 | > 100 | > 100 | > 100 | –
9 | CC(C)(Oc1ccc(/C=C/C(=O)c2ccc(Cl)cc2)cc1)C(=O)Nc1c(Cl)cccc1Cl | 29.2 | 33.7 | 53.9 | 27.1 | – | 37.7 | –
10 | O=C(O)c1ccc(C2C(=O)N[C@@H]3CCC[C@H]23)cc1 (stereo partly drawn) | > 100 | > 100 | > 100 | > 100 | > 100 | – | –
11 | CCOC(=O)NC(=O)c1cn(CCN2CCN(C(=O)CCCCCCCCCCC(=O)N3CCN(CCn4cc(C(=O)NC(=O)OCC)c(=O)[nH]c4=O)CC3)CC2)c(=O)[nH]c1=O | > 100 | > 100 | > 100 | > 100 | – | > 100 | –
12 | CC(=O)N1CCC2(c3ccccc3N(C(C)=O)C2c2ccc(O)cc2)C1C(=O)O (stereo not drawn) | > 100 | > 100 | > 100 | > 100 | > 100 | > 100 | –
13 | CSC1=Nc2ccccc2N=C(c2ccc(Cl)cc2)C1 | > 100 | – | > 100 | > 100 | > 100 | > 100 | –
14 | C[N+](C)(C)CC1CCCCC1O (stereo not drawn) | > 100 | – | > 100 | > 100 | > 100 | – | –
15 | N/N=C1\C(=O)N(CCc2ccccc2)C(=O)C1C(=O)NCCc1ccccc1 (stereo not drawn) | > 100 | – | > 100 | > 100 | > 100 | > 100 | –
16 | NC(=S)NN/C=C(\C=Nc1ccccc1)[N+](=O)[O-] | > 100 | > 100 | > 100 | > 100 | – | > 100 | –
17 | CC(C)(C)c1cc(C=C(C#N)C#N)cc(C(C)(C)C)c1O | 42.7 | 7.3 | 6.59 | – | – | 3.13 | GI50 (BT-549 breast): 0.141 µM; TGI (BT-549 breast): 0.875 µM and 6.78 µM; GI50 (MDA-MB-231 breast): 0.0923 µM; TGI (MDA-MB-231 breast): 0.675 µM; GI50 (NCI/ADR-RES ovarian): 0.0629 µM; TGI (NCI/ADR-RES ovarian): 15.1 µM and 41.5 µM; GI50 (PC-3 prostate): 0.0354 µM; TGI (PC-3 prostate): 3.36 µM and 4.17 µM
18 | Cc1ccccc1C(=O)N1CCN(C(=O)c2ccccc2C)CC1 | > 100 | – | > 100 | > 100 | > 100 | > 100 | –
19 | Cc1nc(C(N)=S)sc1C(=O)/C=C/c1c(O)ccc2ccccc12 | > 100 | 98.1 | > 100 | 19 | > 100 | > 100 | –
20 | O=[N+]([O-])c1ccc(-c2ccc(-c3csc(Nc4ccccc4)n3)o2)cc1 | 65.9 | 63.5 | 32.9 | > 81.6 | 38.4 | 32.4 | –

Row | Structure (SMILES) | TGI (DLD-1 colon) [µM] | TGI (DMS 114 small cell lung) [µM] | TGI (LXFL 529 NSCLC) [µM] | TGI (M19-MEL melanoma) [µM] | TGI (SNB-78 CNS) [µM] | TGI (XF 498 CNS) [µM] | further results
21 | CCCCN(CC)CC(C(C)=O)c1c(O)c2ccccc2oc1=O (stereo not drawn) | > 100 | > 100 | > 100 | > 100 | > 100 | > 100 | –
22 | COc1ccc(CN2CCC/C=C/CC(Cl)(Cl)C2=O)cc1 | > 100 | 71.3 | > 100 | 95.2 | – | – | –
23 | COC(=O)C1(O)CC(=O)CCC1c1ccc(OC)cc1 (stereo not drawn) | > 100 | > 100 | – | – | > 100 | – | –
24 | CN(C)C(=S)/N=c1\ssc(=S)n1Cc1ccncc1 | 47.4 | 7.77 | 82.1 | 27.8 | > 100 | 24.9 | –
25 | CC(C)(C)C(=O)[CH-]C(=O)C(C)(C)C.CC(C)(C)C(=O)[CH-]C(=O)C(C)(C)C.CN(C)c1ccc([O-])cc1.CN(C)c1ccc([O-])cc1.[Ti+4] | > 100 | > 100 | > 100 | > 100 | > 100 | – | GI50 (DLD-1 colon): > 100 µM; GI50 (DMS 114 small cell lung): > 100 µM; GI50 (LXFL 529 NSCLC): 57.9 µM; GI50 (M19-MEL melanoma): 79.2 µM; GI50 (SNB-78 CNS): > 100 µM
26 | C/C(=N/NC(=O)C[N+](C)(C)C)C(CN(C)C)C(=O)Nc1ccccc1 (stereo not drawn) | > 100 | > 100 | > 100 | > 100 | – | > 100 | –
27 | Cn1c2c(c3ccccc31)CCN(CCN1CCN(c3cccc(Cl)c3)CC1)C2=O | > 100 | > 100 | > 100 | > 100 | – | 34.5 | –
28 | CSC(=NCCc1c[nH]c2ccccc12)NC#N | > 100 | > 100 | > 100 | > 100 | > 100 | > 100 | –
29 | O=c1oc2ccccc2[n+]([O-])c1-c1ccccc1 | > 100 | > 100 | > 100 | > 100 | > 100 | > 100 | –
30 | CC(=O)OCC1OC(N2C(=O)C(=O)c3ccccc32)C(OC(C)=O)C(OC(C)=O)C1OC(C)=O (stereo not drawn) | > 100 | > 100 | > 100 | > 100 | – | – | –
31 | CSc1nnc(COc2ccc(Cl)cc2)o1 | > 100 | > 100 | > 100 | > 100 | > 100 | > 100 | –
32 | COc1ccc(C(=O)NCCN(C)C)c2nc3ccccc3nc12 | > 65.4 | 12.5 | > 37.9 | 9.9 | 38.4 | – | –
33 | O=C(/C=C/c1ccccc1)c1ccc(NCc2nc3ccccc3[nH]2)cc1 | 15.6 | 12.4 | 10.8 | 14.7 | 20.7 | 20.5 | –
34 | c1ccc(N2N=C(c3ccco3)CC2c2ccco2)cc1 (stereo not drawn) | – | > 100 | > 100 | > 100 | > 100 | > 100 | –
35 | C=CC(OCC)(OCC)OCC | > 100 | 31.2 | > 100 | > 100 | > 100 | > 100 | –
36 | O=[N+]([O-])c1ccc(Sc2c3ccccc3nc3cc(Cl)ccc23)cc1 | > 100 | > 100 | > 100 | > 100 | – | 99.6 | GI50 (DLD-1 colon): > 100 µM; GI50 (DMS 114 small cell lung): > 100 µM; GI50 (LXFL 529 NSCLC): > 100 µM; GI50 (M19-MEL melanoma): > 100 µM
37 | Nc1ncnc2c1ncn2CC(O)CO (stereo not drawn) | > 100 | > 100 | > 100 | > 100 | > 100 | – | –
38 | CCCCN(CCCC)C(=O)/C(CC(=O)c1cccc2ccccc12)=N\NC(=O)c1cc2ccccc2cc1O | > 100 | – | > 100 | > 100 | 99.7 | 88.1 | –
39 | CCNC(=O)COc1ccc(Cl)cc1Cl | > 100 | > 100 | > 100 | > 100 | > 100 | – | –
